Results: US20250250265A1, “BENZOTHIAZOLE-PHENYLSULFONYL-PIPERIDINE ANALOGS AS ACTIVATORS OF NACYLPHOSPHATIDYLETHANOLAMINE HYDROLYZING PHOSPHOLIPASE D” (priority 2022, published 2025)
“Also recorded” adds a separate entry of the source. Read-outs that look alike come from different tables or passages of the source.

Legend:
[1] = target: T1, recombinant mouse NAPE-PLD (Mus musculus, UniProt Q8BH82); assay: In vitro fluorescence NAPE-PLD activity assay (HTS/CRC) with recombinant mouse NAPE-PLD and PED-A1; type: biochemical; details: for Emax (95% Cl): Table 4, maximal efficacy as fold increase in NAPE-PLD activity versus vehicle only; for bAC175: compound concentration to induce 175% basal activity; for Max % bA (%): maximum induced activity compared to basal (100%) activity
T1 construct: hexahistidine (His6) (C); made in house; host or cells: E. coli
T1 sequence (Q8BH82 1-396): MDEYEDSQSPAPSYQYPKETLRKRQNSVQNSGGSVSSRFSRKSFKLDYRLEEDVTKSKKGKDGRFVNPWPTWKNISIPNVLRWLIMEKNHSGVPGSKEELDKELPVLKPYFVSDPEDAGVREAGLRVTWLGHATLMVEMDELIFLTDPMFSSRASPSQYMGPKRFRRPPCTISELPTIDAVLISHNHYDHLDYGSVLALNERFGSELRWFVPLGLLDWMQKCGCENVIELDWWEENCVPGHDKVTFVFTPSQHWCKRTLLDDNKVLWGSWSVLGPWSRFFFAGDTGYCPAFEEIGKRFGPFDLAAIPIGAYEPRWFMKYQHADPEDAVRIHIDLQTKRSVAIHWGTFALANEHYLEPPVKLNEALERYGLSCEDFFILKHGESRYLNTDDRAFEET
Method: Using the fluorogenic NAPE substrate, PED-A1, and recombinant mouse NAPE-PLD (rNAPE-PLD), an in vitro high-throughput (HTS) assay was conducted to screen ˜40,000 compounds for their ability to modulate NAPE-PLD activity. The HTS assay enabled the detection of both NAPE-PLD activators and inhibitors. […] Initial structure-activity response studies with the top hits identified benzothiazole phenylsulfonyl-piperidine carboxamide analogs (BT-PSP analogs) as lead compounds for NAPE-PLD activators (Table 1). The lead BT-PSP analog identified, VU534, induces 50% of its activation effect on NAPE-PLD at 270 nM (AC50 270 nM), and induces a maximal effect of 195% of basal NAPE-PLD activity (Table 1).
In vitro fluorescence NAPE-PLD activity assays using recombinant NAPE-PLD and either PED-A1 or flame-NAPE as fluorogenic substrate were performed as previously described except with small modifications as noted below. See Aggarwal et al., J. Biol. Chem. 295(21): 7289-7300 (2020); Zarrow et al., J. Lipid Res. 63(1): 100156 (2022).
For the HTS assays, test compounds were incubated with recombinant enzyme for 1 h prior to adding PED-A1 (final 0.4 μM) mixed with N-palmitoyl-dioleoyl-PE (final 3.6 μM) to adjust for the high sensitivity of the Panoptic instrument (WaveFront Biosciences). Assays used black-wall, clear-bottom, non-sterile, and non-treated 384-well plates (Greiner Bio-One 781906). The assay was read in kinetic fluorescence mode on the Panoptic instrument for 4 min and the slope of the signal from 30-100 s was used for analysis. A total of 39,328 compounds from the Vanderbilt Discovery Collection were tested, each at 10 μM. The tested compounds were chosen to represent a structurally diverse selection from the full library. Each 384-well plate included 320 test compound wells and 64 control wells. Unlike previous pilot screening assays, bithionol (10 μM final) was used in place of lithocholic acid (100 μM final) as the inhibitor control. Before performing high-throughput screening, a checkerboard assay was performed to validate the assay parameters. This yielded a Z′ score of 0.676. Z′ scores were also calculated for each plate during screening, and plates with scores <0.5 were re-run. The average Z′ across all screening plates was 0.52, and the total hit rate was 3.6%. B-scores were calculated from the initial slopes across each plate using WaveGuide software (WaveFront Biosiences). Modulator hits were defined as compounds with absolute B-scores of 3 or higher. The number of compounds in various B-score ranges were as follows: […], 12 compounds; −10 to −5, 221 compounds; −5 to −3, 770 compounds; −3 to 3, 37924 compounds; 3 to 4, 314 compounds; 4 to 6, 70 compounds; 6 to 10, 15 compounds. Activator hits with B-scores of >3 were selected for the replication assay and a selection of analogs of the activators.
Concentration response curve (CRC) experiments used the same assay conditions as the HTS assay, except that graded concentrations of each test compound were used, with total amount of vehicle (DMSO) kept constant. CRC experiments with purified recombinant mouse NAPE-PLD were performed on two separate days, with values from each day normalized to vehicle only controls on same plate, and then all normalized values from both days averaged together. CRC experiments with human NAPE-PLD represent value from only a single day, due to limited amounts of this recombinant enzyme.

[2] = target: T2, soluble epoxide hydrolase (sEH) (Homo sapiens, UniProt P34913); assay: sEH activity assay (Cayman Chemicals); type: biochemical; details: for Remaining sEH Activity (33 μM): Table 3; for inhibition at 33 µM: 33 μM compound, compared to vehicle (0%); for inhibition of sEH activity: graded concentrations
T2 construct: purchased Cayman Chemicals
T2 sequence (P34913 1-555): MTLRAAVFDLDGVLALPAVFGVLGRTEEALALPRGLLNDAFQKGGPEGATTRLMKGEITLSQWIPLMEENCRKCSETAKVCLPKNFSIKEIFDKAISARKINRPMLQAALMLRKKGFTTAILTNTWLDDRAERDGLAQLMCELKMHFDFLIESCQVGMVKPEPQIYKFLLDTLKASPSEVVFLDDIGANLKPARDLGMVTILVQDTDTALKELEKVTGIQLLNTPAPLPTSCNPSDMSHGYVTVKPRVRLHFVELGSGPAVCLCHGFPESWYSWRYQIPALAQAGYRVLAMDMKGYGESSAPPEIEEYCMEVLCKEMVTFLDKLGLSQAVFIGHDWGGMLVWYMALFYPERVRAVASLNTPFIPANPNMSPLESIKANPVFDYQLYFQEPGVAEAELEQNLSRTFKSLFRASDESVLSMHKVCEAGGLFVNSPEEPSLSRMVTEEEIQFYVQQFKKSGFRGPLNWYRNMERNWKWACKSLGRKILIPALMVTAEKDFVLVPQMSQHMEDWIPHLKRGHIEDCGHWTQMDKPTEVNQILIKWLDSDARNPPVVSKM
Method: Concentration response curves were plotted for VU534 for the enzymes fatty acid amide hydrolase (FAAH) and soluble epoxide hydrolase (sEH).
The fluorescence interference assay was performed using the same method as the HTS assay, but with BODIPY-FL C5 (Thermo Fisher Scientific) used in place of PED-A1. sEH and FAAH activity assays were performed according to the manufacturer's specifications (Cayman Chemicals).

[3] = target: T3, NAPE-PLD activity of RAW264.7 macrophages (Mus musculus, UniProt Q8BH82); assay: Cell-based NAPE-PLD activity in RAW264.7 macrophages (PED-A1 with orlistat); details: for In-cell NAPE-PLD activity in RAW 264.7 (10 μM) with PED-A1 or flame-NAPE as substrate: Table 3; for 10 μM Mϕ % NAPE-PLD activity: Table 2, 10 μM compound, vehicle = 100%; for effect on NAPE-PLD activity in RAW264.7 cells: graded concentrations (FIG. 17A)
T3 construct: endogenous in cells; host or cells: RAW264.7
T3 sequence (Q8BH82 1-396): T1 sequence (Q8BH82 1-396)
Method: NAPE-PLD activity was measured in cells as previously described, except that FluoroBrite DMEM (Gibco A1896701) was used as media. See Zarrow et al., J. Lipid Res. 63(1): 100156 (2022). For RAW264.7 assays, PED-A1 (3.6 μM final) was used as the substrate with 10 μM orlistat added to inhibit PLA1 activity, while for HepG2 cells, flame-NAPE was used (with no orlistat added).

[4] = Table 3, read-out: In vitro EC50
[5] = Table 3, read-out: In vitro Emax (100% activity is baseline activity of vehicle only)
[6] = Table 1, concentration for 50% maximum activation from basal activity (no activator)
[7] = Table 2, maximal induced activity for recombinant NAPE-PLD compared to basal (100%), read-out: Emax (%)
[8] = Table 2, rNAPE-PLD activity assay, read-out: EC50

Cc1cccc2sc(NC(=O)C3CCN(S(=O)(=O)c4cnn(C)c4)CC3)nc12 [VU210]
EC50 [1, 4]: 1500 nM | Emax [1, 5]: 239% | Emax (95% Cl) [1]: 2.4 (2.3-2.6) fold | Remaining sEH Activity (33 μM) [2]: 81% | In-cell NAPE-PLD activity in RAW 264.7 (10 μM) with PED-A1 or flame-NAPE as substrate [3]: 98%

Cc1ccc2sc(NC(=O)C3CCN(S(=O)(=O)c4ccc(F)cc4)CC3)nc2c1C [VU517]
bAC175 ([1]; Table 1): 1480 nM | AC50 [1, 6]: 767 nM | Max % bA (%) ([1]; Table 1): 190% | Emax [1, 7]: 210% | EC50 [1, 8]: 1500 nM | EC50 [1, 4]: 1500 nM | Emax [1, 5]: 213% | Emax (95% Cl) [1]: 2.0 (2.0-2.1) fold | inhibition at 33 µM [2]: 70% | Remaining sEH Activity (33 μM) [2]: 29% | 10 μM Mϕ % NAPE-PLD activity [3]: 125% | In-cell NAPE-PLD activity in RAW 264.7 (10 μM) with PED-A1 or flame-NAPE as substrate [3]: 123%

Cc1cc2nc(NC(=O)C3CCN(S(=O)(=O)c4ccc(F)cc4)CC3)sc2cc1C [VU536]
bAC175 ([1]; Table 1): 2400 nM | AC50 [1, 6]: 1540 nM | Max % bA (%) ([1]; Table 1): 215% | Emax [1, 7]: 225% | EC50 [1, 8]: 890 nM | EC50 [1, 4]: 890 nM | Emax [1, 5]: 227% | Emax (95% Cl) [1]: 2.3 (2.2-2.4) fold | inhibition at 33 µM [2]: 50% | Remaining sEH Activity (33 μM) [2]: 49% | 10 μM Mϕ % NAPE-PLD activity [3]: 155% | In-cell NAPE-PLD activity in RAW 264.7 (10 μM) with PED-A1 or flame-NAPE as substrate [3]: 155%

O=C(Nc1nc2ccccc2s1)C1CCN(S(=O)(=O)c2ccc(F)c(Cl)c2)CC1 [VU233]
Emax (95% Cl) [1]: <1.2 fold | Remaining sEH Activity (33 μM) [2]: 117% | inhibition of sEH activity [2]: neither VU533 nor VU233 significantly inhibited seH | effect on NAPE-PLD activity in RAW264.7 cells [3]: no significant effect; also recorded: not significant

Cc1ccc(C)c2sc(NC(=O)C3CCN(S(=O)(=O)c4ccc(F)cc4)CC3)nc12 [VU533]
AC50 (nM) [1, 6]: Not active | Max % bA (%) ([1]; Table 1): <120% | Emax [1, 7]: < 120% | EC50 (μM) ([1]; Table 2, rNAPE-PLD activity assay): Inactive | Emax (95% Cl) [1]: 2.6 (2.6-2.8) fold | inhibition of sEH activity [2]: neither VU533 nor VU233 significantly inhibited seH | Emax, Nape-pld activity in RAW264.7 cells ([3]; FIG. 17A, PED-A1): 2.2 fold | effect on NAPE-PLD activity in RAW264.7 cells [3]: significantly increased NAPE-PLD activity

Cc1cccc2sc(NC(=O)C3CCN(S(=O)(=O)c4cccnc4)CC3)nc12 [MRJ-058C]
Emax [1, 7]: 175% | EC50 [1, 8]: 940 nM | inhibition at 33 µM [2]: 50% | 10 μM Mϕ % NAPE-PLD activity [3]: 115%

Cc1cccc2sc(NC(=O)C3CCN(S(=O)(=O)c4ccc(F)c(Cl)c4)CC3)nc12 [MRJ-058B]
Emax [1, 7]: 180% | EC50 [1, 8]: 4700 nM | inhibition at 33 µM [2]: 50% | 10 μM Mϕ % NAPE-PLD activity [3]: 135%

Cc1ccc2nc(NC(=O)C3CCN(S(=O)(=O)c4ccc(F)cc4)CC3)sc2c1 [VU486]
Emax [1, 7]: 190% | EC50 [1, 8]: 240 nM | EC50 [1, 4]: 240 nM | Emax [1, 5]: 189% | Emax (95% Cl) [1]: 1.8 (1.7-1.9) fold | inhibition at 33 µM [2]: 40% | Remaining sEH Activity (33 μM) [2]: 60% | 10 μM Mϕ % NAPE-PLD activity [3]: 105% | In-cell NAPE-PLD activity in RAW 264.7 (10 μM) with PED-A1 or flame-NAPE as substrate [3]: 107%

Cc1cccc2sc(NC(=O)C3CCN(S(=O)(=O)c4cccnc4)CC3)nc12 [VU211]
EC50 [1, 4]: ~940 nM | Emax [1, 5]: ~176% | Emax (95% Cl) [1]: 2.1 (2.0-2.2) fold | Remaining sEH Activity (33 μM) [2]: 48% | In-cell NAPE-PLD activity in RAW 264.7 (10 μM) with PED-A1 or flame-NAPE as substrate [3]: 114%

Cc1cccc2sc(NC(=O)C3CCN(S(=O)(=O)c4cnn(C)c4)CC3)nc12 [MRJ-058D]
Emax [1, 7]: 240% | EC50 [1, 8]: 1500 nM | inhibition at 33 µM [2]: 20% | 10 μM Mϕ % NAPE-PLD activity [3]: 100%

O=C(Nc1nc2ccccc2s1)C1CCN(S(=O)(=O)c2cccnc2)CC1 [VU203]
EC50 [1, 4]: 3400 nM | Emax [1, 5]: 183% | Emax (95% Cl) [1]: 1.8 (1.7-2.0) fold | Remaining sEH Activity (33 μM) [2]: 59%
